Measured values from patent US7772252B2, “Heterocyclic substituted carbonyl derivatives and their use as dopamine D3 receptor ligands” (Aventis Pharmaceuticals Inc., priority 2001, dated 2010).

These molecules were tested against T1, cloned human dopamine D3 receptors (Homo sapiens, UniProt P35462) (assay: [N-Methyl-3H]Spiroperidol binding to cloned human dopamine D3 receptors). Settings: read-out: D3 Ki.
T1 construct: expressed in transfected cells; membrane homogenate
Text: [N-Methyl-^3H]Spiroperidol Binding to Cloned Human Dopamine D3 Receptors
This assay measures the in vitro activity of compounds on cloned human dopamine (D3) receptors and predicts the direct dopamine-blocking properties of putative neuropsychiatric agents at human dopamine D3 receptors.
The D3 gene was isolated from a human striatal cDNA library (Stratagene). The gene was sequenced and sub-cloned into the expression vector RC/RSV (Invitrogen). CHO (Chinese Hamster Ovary) cells were stably transfected with 10 μg of the D3/RSV plasmid using the DOTAP method from Boehringer Mannheim and 72 clones that were G418 resistant were isolated. Using mRNA and binding displacement data a single high expressing clone was identified. This clone was then grown in large batches for the purpose of developing a 96 well format assay.
• 1. One plate (10 cm) with approximately 2-3 million D3 cells per plate is incubated with 1 ml of Trypsin-EDTA at room temperature for ˜2 min or until cells have lifted off plates. Four ml of Ham's F12+10% Fetal Bovine Serum+1% Penicillin/Streptomycin+G418 (400 μg/ml) medium are added to resuspend cells and 1 ml of this is added to each large plate (15 cm) containing 19 ml of the same medium as mentioned above. • 2. The 5 large plates are incubated at 37° C.+5% CO2 for ˜3 days or until the cells are confluent. • 3. After these plates are confluent, they are split into 10 large plates. Medium is aspirated off, 2 ml of Trypsin-EDTA are added to each plate and plates are incubated at RT for 2 min or until cells have lifted off the plate. Eight ml of the F12 medium (same medium as #1 above) are added to each plate (10 ml total) to resuspend the cells and 5 ml are transferred to the 2 new plates containing 15 ml of the F12 media. • 4. The 10 large plates are incubated at 37° C.+5% CO2 for ˜2 days or until the cells are confluent. • 5. The 10 large plates are split into 60 large plates (using Trypsin-EDTA as #3 except 4 ml of F12 medium are added to resuspend cells and 1 ml is aliquoted to 6 new plates containing 19 ml of F12 medium each). • 6. Plates are incubated at 37° C.+5% CO2 for ˜3 days or until cell are confluent. • 7. The 60 large plates are then split into 60 roller bottles (100-150 million cells/bottle). Medium is aspirated off, 2 ml of Trypsin-EDTA are added to each plate and incubated at RT for ˜2 minutes or until cells have lifted off plates. Eight ml of F12 medium are added to each plate to resuspend cells and the entire 10 ml are added to 1 roller bottle containing 90 ml of the F12 medium. • 8. The 60 roller bottles are immediately placed on their sides and transferred to the roller bottle incubator. They are incubated at 37° C.+5% CO2 for ˜3-5 days. Cells are spun at 30-40% motor speed in the Form a incubator. • 9. Medium is poured off and cells are washed 2× in PBS. • 10. Cells are then scraped off in 20 ml of PBS and the bottles are rinsed again with 5 ml of PBS to remove any remaining cells. Cells are stored on ice before membrane preparation. • 11. The yield for 60 D3 roller bottles has varied from ˜260-500 mg. • Note: All tissue culture reagents are from Gibco-BRL. C. Membrane Preparation
The cells are harvested into 250 ml centrifuge tubes with 100 volumes of cold phosphate buffered saline (PBS) and spun down (1200×G for 10 min at 4° C.). The medium is removed and 100 ml PBS are added to each centrifuge tube, cells are resuspened and spun down again. The PBS is removed and the final pellet is homogenized in an appropriate volume of 10% DMSO with a polytron on ice at a medium setting.
A 200 μl sample membrane homogenate is added to 200 μl of 1% SDS, vortexed and allowed to stand for 5 min. Aliquots (25, 50 and 100 μl) of this mixture are assayed in duplicate following the standard Bio-Rad DC protein assay protocol (kit catalog number 500-0112) and using reagent S. Absorbance readings are made at 750 nm (note: the most accurate protein OD readings are between 0.1-0.5 units). […]

T1 sequence (P35462 whole entry): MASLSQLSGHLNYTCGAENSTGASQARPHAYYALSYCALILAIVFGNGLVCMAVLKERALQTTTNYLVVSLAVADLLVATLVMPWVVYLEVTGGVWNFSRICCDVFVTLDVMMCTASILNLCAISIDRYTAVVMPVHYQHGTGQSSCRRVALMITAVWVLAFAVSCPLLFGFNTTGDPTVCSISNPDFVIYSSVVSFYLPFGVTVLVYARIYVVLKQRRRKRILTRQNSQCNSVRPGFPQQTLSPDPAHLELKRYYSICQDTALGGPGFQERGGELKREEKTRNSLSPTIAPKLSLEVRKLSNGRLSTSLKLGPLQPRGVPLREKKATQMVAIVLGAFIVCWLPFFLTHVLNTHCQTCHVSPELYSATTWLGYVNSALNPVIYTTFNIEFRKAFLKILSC

Row | Ki [µM] | Structure (SMILES)
1 | 0.277 | C[C@H]1CC[C@H](NC(=O)[C@@H]2CC[C@H]2CN2CCN(c3noc4ccsc34)CC2)CC1 (racemic) [compound 829996]
2 | 0.0104 | C[C@H]1CC[C@H](NC(=O)[C@@H]2CC[C@H]2CN2CCCN(c3csc4cc(F)ccc34)CC2)CC1 (racemic) [compound 829997]
3 | 0.286 | C[C@H]1CC[C@H](NC(=O)[C@@H]2CC[C@H]2CN2CCCN(c3noc4ccsc34)CC2)CC1 (racemic) [compound 830000]
4 | 0.0165 | CCC1CCC(NC(=O)C2CC2CN2CCN(c3nn(-c4ccc(C(F)(F)F)cc4)c4ccccc34)CC2)CC1 (racemic) [compound 830046]
5 | 0.00542 | CC1CCC(NC(=O)C2CC2CN2CCN(c3nn(-c4ccccc4F)c4ccccc34)CC2)CC1 (racemic) [compound 830114]
6 | 0.0131 | CC1CCC(NC(=O)C2CC2CN2CCN(c3n[nH]c4ccccc34)CC2)CC1 (racemic) [compound 830116]
7 | 0.0471 | CC1CCC(NC(=O)C2CC2CN2CCN(c3onc4c3CCc3ccccc3-4)CC2)CC1 (racemic) [compound 830121]
8 | 0.0738 | CC1CCC(NC(=O)C2CC2CN2CCCN(c3onc4c3CCc3ccccc3-4)CC2)CC1 (racemic) [compound 830123]
9 | 0.0697 | CCOC(=O)c1cc2ccc(N3CCCN(CC4CC4C(=O)NC4CCC(CC)CC4)CC3)cc2s1 (racemic) [compound 830128]
10 | 0.00416 | CCC1CCC(NC(=O)C2CC2CN2CCN(c3nn(-c4ccccc4)c4cc(F)ccc34)CC2)CC1 (racemic) [compound 830129]
11 | 0.0341 | CCC1CCC(NC(=O)C2CC2CN2CCCN(c3onc4c3CCc3ccc(OC)cc3-4)CC2)CC1 (racemic) [compound 830131]
12 | 0.00926 | CCC1CCC(NC(=O)C2CC2CN2CCC(c3ccccc3Cc3ccccc3)CC2)CC1 (racemic) [compound 830132]
13 | 0.0176 | COc1ccc2[nH]nc(N3CCN(CC4CC4C(=O)NC4CCC(C)CC4)CC3)c2c1 (racemic) [compound 830439]
14 | 0.0227 | O=C(NCCc1cccs1)C1CC1CN1CCC(c2noc3ccsc23)CC1 (racemic) [compound 831385]
15 | 0.000861 | O=C(C1CC1CN1CCC(c2noc3ccsc23)CC1)N1CCN(Cc2ccc(Cl)c(Cl)c2)CC1 (racemic) [compound 831390]
16 | 0.0183 | O=C(OCc1ccccc1)N1CCN(C(=O)C2CC2CN2CCC(c3noc4ccsc34)CC2)CC1 (racemic) [compound 831453]
17 | 0.00186 | O=C(NCc1ccc2ccccc2c1)C1CC1CN1CCC(c2noc3ccsc23)CC1 (racemic) [compound 831454]
18 | 0.00679 | O=C(NCc1ccc(-c2ccccc2)cc1)C1CC1CN1CCC(c2noc3ccsc23)CC1 (racemic) [compound 831455]
19 | 0.00621 | O=C(NCCc1cccnc1)C1CC1CN1CCC(c2noc3ccsc23)CC1 (racemic) [compound 831456]
20 | 0.00183 | O=C(NC1CCN(Cc2ccccc2)CC1)C1CC1CN1CCC(c2noc3ccsc23)CC1 (racemic) [compound 831457]
21 | 0.00743 | O=C(c1ccc(Cl)cc1)C1CCN(C(=O)C2CC2CN2CCC(c3noc4ccsc34)CC2)CC1 (racemic) [compound 831458]
22 | 0.0498 | COc1ccc(C2=CCN(C(=O)C3CC3CN3CCC(c4noc5ccsc45)CC3)CC2)cc1 (racemic) [compound 831599]
23 | 0.0196 | O=C(C1CC1CN1CCC(c2noc3ccsc23)CC1)N1CCC(c2ccccc2)C1 (racemic) [compound 831602]

Row | Ki [µM] | Structure (SMILES)
24 | 0.0209 | O=C(NCCNc1ccccc1)C1CC1CN1CCC(c2noc3ccsc23)CC1 (racemic) [compound 831603]
25 | 0.0703 | CC(C)COC(=O)n1c(CCCNC(=O)C2CC2CN2CCC(c3noc4ccsc34)CC2)nc2ccccc21 (racemic) [compound 831621]
26 | 0.0346 | O=C(NCCCc1nc2ccccc2[nH]1)C1CC1CN1CCC(c2noc3ccsc23)CC1 (racemic) [compound 831622]
27 | 0.173 | O=C(NCCNC(=O)C1CC1CN1CCC(c2noc3ccsc23)CC1)OCc1ccccc1 (racemic) [compound 831649]
28 | 0.0253 | O=C(NCCCCc1cccnc1)C1CC1CN1CCC(c2noc3ccsc23)CC1 (racemic) [compound 831686]
29 | 0.277 | O=C(NCCCn1nnc2ccccc21)C1CC1CN1CCC(c2noc3ccsc23)CC1 (racemic) [compound 831687]
30 | 0.0164 | O=C(NCCS(=O)(=O)c1cccc2c(Cl)cccc12)C1CC1CN1CCC(c2noc3ccsc23)CC1 (racemic) [compound 831689]
31 | 0.0557 | NS(=O)(=O)c1ccc(CCNC(=O)C2CC2CN2CCC(c3noc4ccsc34)CC2)cc1 (racemic) [compound 831701]
32 | 0.0279 | O=C(C1CC1CN1CCC(c2noc3ccsc23)CC1)N1CCC(c2nc3ccccc3s2)CC1 (racemic) [compound 831702]
33 | 0.045 | O=C(C1CC1CN1CCC(c2noc3ccsc23)CC1)N1CCC(c2cc(-c3cccs3)[nH]n2)CC1 (racemic) [compound 831703]
34 | 0.0475 | O=C(C1CC1CN1CCC(c2noc3ccsc23)CC1)N1CCC(c2cc(-c3ccco3)[nH]n2)CC1 (racemic) [compound 831704]
35 | 0.0813 | O=C(NCc1cccc(Oc2ccccc2)c1)C1CC1CN1CCC(c2noc3ccsc23)CC1 (racemic) [compound 831735]
36 | 0.291 | O=C(NCCS(=O)(=O)c1ccccc1)C1CC1CN1CCC(c2noc3ccsc23)CC1 (racemic) [compound 831736]
37 | 0.00125 | O=C(C1CC1CN1CCC(c2noc3ccsc23)CC1)N1CCC(n2c(=O)[nH]c3ccccc32)CC1 (racemic) [compound 831737]
38 | 0.223 | CCN(CC)C(=O)C1CCN(C(=O)C2CC2CN2CCC(c3noc4ccsc34)CC2)CC1 (racemic) [compound 831738]
39 | 0.00296 | CN(C)Cc1ccc(CSCCNC(=O)C2CC2CN2CCC(c3noc4ccsc34)CC2)o1 (racemic) [compound 831740]
40 | 0.125 | CN1CCN(CCCNC(=O)C2CC2CN2CCC(c3noc4ccsc34)CC2)CC1 (racemic) [compound 831741]
41 | 0.0273 | O=C(C1CC1CN1CCC(c2noc3ccsc23)CC1)N1CCC(Oc2ccc(Cl)cc2)CC1 (racemic) [compound 831794]
42 | 0.00182 | COc1ccc(CN2CCC(NC(=O)C3CC3CN3CCC(c4noc5ccsc45)CC3)CC2)cc1 (racemic) [compound 831795]
43 | 0.0463 | O=C(NCCc1ccccc1Cl)C1CC1CN1CCC(c2noc3ccsc23)CC1 (racemic) [compound 831798]
44 | 0.0121 | O=C(NCCc1cccc(Cl)c1)C1CC1CN1CCC(c2noc3ccsc23)CC1 (racemic) [compound 831799]
45 | 0.005 | O=C(NCCc1ccc(Cl)cc1)C1CC1CN1CCC(c2noc3ccsc23)CC1 (racemic) [compound 831800]

Row | Structure (SMILES) | Ki [µM]
46 | CCC1CCC(NC(=O)C2CC2CN2CCC(c3cc4cc(OC)cc(Br)c4o3)CC2)CC1 (racemic) [compound 830112] | 0.054
47 | CC1CCC(NC(=O)C2CC2CN2CCN(c3n[nH]c4cc(Cl)ccc34)CC2)CC1 (racemic) [compound 830124] | 0.00184
48 | CC1CCC(NC(=O)C2CC2CN2CCCN(c3noc4ccsc34)CC2)CC1 (racemic) [compound 830126] | 0.0238
49 | CC1CCC(NC(=O)C2CC2CN2CCN(c3noc4ccsc34)CC2)CC1 (racemic) [compound 830127] | 0.00166
50 | COc1c(F)ccc2c(C3CCN(CC4CC4C(=O)NC4CCC(C)CC4)CC3)noc12 (racemic) [compound 830134] | 0.000602
51 | O=C(Cc1ccccc1)NNC(=O)C1CC1CN1CCC(c2noc3ccsc23)CC1 (racemic) [compound 831452] | 0.115
